Ends that are not written are not given here.
Experiments:
[1] = system: hepatitis B virus (HBV) ayw strain; test: HBV experimental assay system (HepG2-2.2.15, TaqMan PCR of secreted HBV DNA); format: cell-based; settings: 10 micrograms per ml; HepG2-2.2.15, six days; combination 0.95 mole peptide 1 and 1.05 mole peptide 2
Description: HepG2-2.2.15 is a stable cell line containing the hepatitis B virus (HBV) ayw strain genome (ATCC Cat. No. CRL-11997). Antiviral compounds blocking any late step of viral replication such as transcription, translation, pregenome encapsidation, reverse transcription, particle assembly and release can be identified and characterized using this cell line. In this assay, an active compound will reduce the production of secreted HBV from cells, measured by utilizing real time quantitative PCR (TaqMan) assay to directly and accurately measure HBV DNA copies.
HepG2-2.2.15 cells were plated in 96-well microtiter plates. After 16-24 hours the confluent monolayer of HepG2-2.2.15 cells was washed and the medium was replaced with complete medium containing test peptides—10 micrograms per ml—in duplicate. […] Six days following the initial administration of the peptides, the cell culture supernatants was collected, treated with pronase and DNAse and then used in a real-time quantitative TaqMan PCR assay. The PCR-amplified HBV DNA was detected in real-time by monitoring increases in fluorescence signals that result from the exonucleolytic degradation of a quenched fluorescence probe molecule that hybridizes to the amplified HBV DNA. […] Antiviral activity was calculated from the reduction in HBV DNA levels (% virus control). […]

[2] = system: Streptococcus pneumoniae; test: Streptococcus pneumoniae assay; format: cell-based; settings: 10 micrograms per ml; 5x10^5 CFU/mL, read visually; combination 0.95 mole peptide 1 and 1.05 mole peptide 2 and all other molar ratios from 1:100 to 100:1
[3] = system: Primary Human endothelial cells (HUVEC); test: Endothelial cell migration assay; format: cell-based; settings: 10 micrograms per ml, 22 hours
[4] = system: HCMV strain AD169; test: HCMV plaque formation assay in MRC-5 cells; settings: 10 micrograms per ml, 7-10 days
[5] = system: HUVEC; test: Endothelial tube formation assay; format: cell-based, human; settings: 10 micrograms per ml, 20 hours
Procedure: The endothelial tube formation assay is based on the ability of endothelial cells to form three-dimensional capillary-like tubular structures when cultured on a gel of basement membrane extract. The endothelial tube formation assay represents a powerful model for studying inhibition and induction of angiogenesis. Pre-labeled HUVEC with Calcein AM were seeded in a 96-well culture plate coated with extracellular metrix (Chemicon international Cat. ECM625) and treated with—10 micrograms per ml—test peptides in full growth medium. Positive control was vehicle only. The endothelial cells were allowed to form tubes for 20 hours and were then examined under an inverted fluorescent microscope. Duplicate wells for each treatment were photographed and quantitatively analyzed for an average tubule length using image analysis software ImageProPlus. Raw data were expressed as average tubule lengths in pixels ±standard deviation. Statistic p values were computed using the Student's t-test.

[6] = system: murine spleen cells; test: Th1/Th2 cytokine profiling assay (Ovalbumin-restimulated spleen cells, CBA Kit); format: cell-based, mouse; settings: 10 micrograms per ml, Ovalbumin restimulation, 72 hours, combination 0.95 mole peptide 1 and 1.05 mole peptide 2

Row | Substance | inhibition of HBV replication as compared to the virus control infection [1] | inhibition of the growth of Streptococcus pneumoniae [2] | inhibition of the migration of human endothelial cells [3] | inhibition of HCMV plaque formation as compared to the virus control experiment [4] | inhibition of the tube formation of human endothelial cells [5] | change of the production of IL-5 [6] | induction of the production of IFN-γ [6] | induction of the production of IL-2 [6] | induction of the production of IL-4 [6] | induction of the production of TNF-alpha [6]
1 | Thr-Thr-Ser-Gln-Val-Arg-Pro-Arg-OH (TTSQVRPR-OH) [Peptide 2, commercially available known peptide, (Gln^18)-Platelet Factor 4 (15-22)] | 31% | 100% | 13% | did not inhibit | 24% | did not significantly change | 47.4% | 24% | 103.9% | 43.7%
2 | Asn-Asp-Asp-Cys-Glu-Leu-Cys-Val-Asn-Val-Ala-Cys-Thr-Gly-Cys-Leu-OH (NDDCELCVNVACTGCL-OH; cysteine pairing not given here) [Peptide 1, commercially available known peptide, Uroguanylin] | no effect | 100% | 14% | did not inhibit | 18% | did not significantly change | 80.8% | 66.9% | 143.8% | 57.1%

Reference: patent US20100210553A1, “USE OF THE PEPTIDE ASN-ASP-ASP-CYS-GLU- LEU-CYS-VAL-ASN-VAL-ALA-CYS-THR-GLY-CYS-LEU ALONE OR IN COMBINATION WITH THE PEPTIDE THR-THR-SER-GLN-VAL- ARG-PRO-ARG AS A THERAPEUTIC AGENT” (priority 2007, published 2010)
